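All cell lines were grown in 96-well plates and treated with compound for 48 hours. GI50 = concentration required for 50% inhibition of growth.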 The source made the active and inactive calls. No stated cut-off is given here; in the data, active = GI50 up to about 1.1 µM and inactive = higher.
Legend:
Experiment in all cases: DTP human tumour cell line panel, 48 h
CAKI-1 = system: CAKI-1
HCC 2998 = system: HCC 2998
HCT-116 = system: HCT-116
LOX IMVI = system: LOX IMVI
M14 = system: M14
MDA-MB-435 = system: MDA-MB-435
MDA-N = system: MDA-N
MOLT-4 = system: MOLT-4
NCI-H23 = system: NCI-H23
NCI-H460 = system: NCI-H460
OVCAR-4 = system: OVCAR-4
SF-295 = system: SF-295
SK-MEL-28 = system: SK-MEL-28
SK-OV-3 = system: SK-OV-3
SN12C = system: SN12C
SW-620 = system: SW-620
T47D = system: T47D
U-251 = system: U-251
SF-539 = system: SF-539

Measured: GI50

O=C1C(c2c(O)[nH]c3ccccc23)=Nc2ccc(Br)cc21
inactive: CAKI-1 56.2 µM | HCC 2998 25.6 µM | HCT-116 24.3 µM | LOX IMVI 51.8 µM | M14 93.5 µM | MDA-MB-435 61.8 µM | MDA-N 99.1 µM | MOLT-4 18.9 µM | NCI-H23 51.8 µM | NCI-H460 70 µM | OVCAR-4 14.9 µM | SF-295 22.4 µM | SK-MEL-28 > 100 µM | SK-OV-3 18.4 µM | SN12C 77.1 µM | SW-620 39.6 µM | T47D 21.8 µM | U-251 19.5 µM

O=C1CSC(c2cccc(Oc3ccccc3)c2)N1c1ccc(Cl)cc1 (stereo unspecified)
inactive: CAKI-1 17.9 µM | HCT-116 13.6 µM | LOX IMVI 18 µM | M14 15 µM | MDA-MB-435 23.2 µM | MDA-N 19.4 µM | MOLT-4 13.6 µM | NCI-H23 25.5 µM | NCI-H460 17.1 µM | OVCAR-4 26.2 µM | SF-295 31 µM | SF-539 32.1 µM | SK-MEL-28 41.2 µM | SK-OV-3 66.4 µM | SN12C 41.3 µM | SW-620 33.6 µM | T47D 10.2 µM | U-251 31 µM

CNC(=O)Nn1c(SC)nc2ccccc21
inactive: CAKI-1 > 100 µM | HCC 2998 > 100 µM | HCT-116 > 100 µM | LOX IMVI > 100 µM | M14 > 100 µM | MDA-MB-435 > 100 µM | MDA-N > 100 µM | MOLT-4 > 100 µM | NCI-H23 > 100 µM | NCI-H460 > 100 µM | OVCAR-4 > 100 µM | SF-295 > 100 µM | SK-MEL-28 > 100 µM | SK-OV-3 > 100 µM | SN12C > 100 µM | SW-620 > 100 µM | T47D > 100 µM | U-251 > 100 µM

COC(=O)C1Cc2c([nH]c3ccccc23)-c2[nH]c3ccccc3c2CC(NC(C)=O)C(=O)NCC(=O)NCC(=O)N1 (stereo unspecified)
inactive: CAKI-1 > 100 µM | HCT-116 > 100 µM | LOX IMVI > 100 µM | M14 > 100 µM | MDA-MB-435 > 100 µM | MDA-N > 100 µM | MOLT-4 > 100 µM | NCI-H23 > 100 µM | NCI-H460 > 100 µM | SF-295 > 100 µM | SF-539 > 100 µM | SK-MEL-28 > 100 µM | SK-OV-3 > 100 µM | SN12C > 100 µM | SW-620 > 100 µM | T47D > 100 µM | U-251 > 100 µM

O=C(O)CCSC1=NCCN1
inactive: CAKI-1 > 100 µM | HCC 2998 > 100 µM | HCT-116 > 100 µM | LOX IMVI > 100 µM | M14 > 100 µM | MDA-MB-435 > 100 µM | MDA-N > 100 µM | NCI-H23 > 100 µM | NCI-H460 > 100 µM | OVCAR-4 > 100 µM | SF-295 > 100 µM | SK-MEL-28 > 100 µM | SK-OV-3 > 100 µM | SN12C > 100 µM | SW-620 > 100 µM | T47D > 100 µM | U-251 > 100 µM

N#CC1=C(N)N(/N=C/c2ccccc2)C(c2ccccc2)C1(C#N)C#N (stereo unspecified)
inactive: CAKI-1 4.61 µM | HCC 2998 19.6 µM | HCT-116 2.81 µM | LOX IMVI 4.14 µM | M14 12.6 µM | MDA-MB-435 18.2 µM | MDA-N 16.1 µM | MOLT-4 2.23 µM | NCI-H23 17.9 µM | OVCAR-4 14.9 µM | SF-295 17.1 µM | SF-539 16.5 µM | SK-MEL-28 4.79 µM | SK-OV-3 12.6 µM | SN12C 14.6 µM | SW-620 5.18 µM | T47D 6.87 µM | U-251 17.7 µM

C=CCC1(O)CC(n2cc(C)c(=O)[nH]c2=O)OC1CO[Si](C)(C)C(C)(C)C (stereo unspecified)
inactive: CAKI-1 54.6 µM | HCC 2998 24.5 µM | HCT-116 42 µM | LOX IMVI 31.2 µM | M14 46.7 µM | MDA-MB-435 41.5 µM | MDA-N 51.6 µM | MOLT-4 57.3 µM | NCI-H23 44 µM | NCI-H460 38.7 µM | OVCAR-4 47 µM | SF-295 42.9 µM | SF-539 53.5 µM | SK-MEL-28 68.9 µM | SN12C 31.6 µM | SW-620 73.1 µM | T47D 55.2 µM | U-251 75.3 µM

CC(=O)[C@@]1(C)CC2(CCN(C)CC2)OC1C (stereo partly specified)
inactive: CAKI-1 > 100 µM | HCT-116 > 100 µM | LOX IMVI > 100 µM | M14 > 100 µM | MDA-MB-435 > 100 µM | MDA-N > 100 µM | MOLT-4 > 100 µM | NCI-H23 > 100 µM | NCI-H460 > 100 µM | OVCAR-4 > 100 µM | SF-295 > 100 µM | SF-539 > 100 µM | SK-MEL-28 > 100 µM | SK-OV-3 > 100 µM | SN12C > 100 µM | SW-620 > 100 µM | T47D > 100 µM | U-251 > 100 µM

O=C1NC(N2CCOCC2)=N/C1=C\c1ccccc1
inactive: CAKI-1 > 100 µM | HCC 2998 > 100 µM | HCT-116 > 100 µM | LOX IMVI > 100 µM | M14 > 100 µM | MDA-MB-435 > 100 µM | MDA-N > 100 µM | MOLT-4 > 100 µM | NCI-H23 > 100 µM | OVCAR-4 > 100 µM | SF-295 > 100 µM | SF-539 > 100 µM | SK-MEL-28 > 100 µM | SK-OV-3 > 100 µM | SN12C > 100 µM | SW-620 > 100 µM | T47D > 100 µM | U-251 > 100 µM

Cc1ccc(N2C(=O)C(=O)N(/N=C3\C(=O)Nc4ccccc43)C2=S)cc1
inactive: CAKI-1 92.5 µM | HCC 2998 93.5 µM | HCT-116 65.8 µM | LOX IMVI 31.6 µM | M14 > 100 µM | MDA-MB-435 36.6 µM | MDA-N 59.7 µM | MOLT-4 28.8 µM | NCI-H23 86.7 µM | NCI-H460 31.5 µM | SF-295 54.1 µM | SF-539 > 100 µM | SK-MEL-28 > 100 µM | SK-OV-3 > 100 µM | SN12C > 100 µM | SW-620 44.2 µM | T47D 38.2 µM | U-251 26.3 µM

Cc1n[nH]c(=S)n1/N=C/c1ccc(-c2ccc(Cl)cc2)o1
inactive: CAKI-1 > 100 µM | HCT-116 > 100 µM | LOX IMVI > 100 µM | M14 > 100 µM | MDA-MB-435 > 100 µM | MDA-N > 100 µM | MOLT-4 > 100 µM | NCI-H23 39.6 µM | NCI-H460 > 100 µM | OVCAR-4 > 100 µM | SF-295 67.8 µM | SF-539 77.1 µM | SK-MEL-28 > 100 µM | SW-620 > 100 µM | T47D > 100 µM | U-251 31.6 µM

O=C1Nc2ccc(S(=O)(=O)NCCO)cc2/C1=C1/Nc2ccccc2C1=O
inactive: CAKI-1 > 100 µM | HCC 2998 53 µM | HCT-116 3.13 µM | LOX IMVI 42 µM | M14 > 100 µM | MDA-MB-435 > 100 µM | MDA-N > 100 µM | MOLT-4 7.06 µM | NCI-H23 28.4 µM | NCI-H460 30.3 µM | OVCAR-4 3.06 µM | SF-295 42 µM | SK-MEL-28 > 100 µM | SK-OV-3 5.42 µM | SN12C 67.5 µM | SW-620 11.9 µM | T47D 4.56 µM | U-251 3.16 µM

CCOC(=O)c1cc(C2CCN(Cc3ccccc3)C2=O)c(C(=O)/C=C(/C)N)[nH]1 (stereo unspecified)
inactive: CAKI-1 > 100 µM | HCC 2998 > 100 µM | HCT-116 90.6 µM | M14 > 100 µM | MDA-MB-435 > 100 µM | MDA-N > 100 µM | MOLT-4 > 100 µM | NCI-H23 > 100 µM | NCI-H460 85.5 µM | OVCAR-4 72.9 µM | SF-295 46.3 µM | SK-MEL-28 > 100 µM | SK-OV-3 70.5 µM | SW-620 > 100 µM | T47D > 100 µM | U-251 > 100 µM

Cc1ccc(-n2cc(-c3ccc(Cl)cc3)c3c(N/N=C4\SCC(=O)N4C)ncnc32)cc1
inactive: CAKI-1 4.23 µM | HCT-116 4.59 µM | LOX IMVI 5.64 µM | M14 4.78 µM | MDA-MB-435 4.23 µM | MDA-N 5.19 µM | MOLT-4 38.9 µM | NCI-H23 3.9 µM | NCI-H460 4.31 µM | OVCAR-4 2.48 µM | SF-295 2.67 µM | SF-539 12 µM | SK-MEL-28 2.44 µM | SK-OV-3 2.54 µM | SN12C 5.6 µM | SW-620 16.3 µM | T47D 91.4 µM | U-251 6.71 µM

O=[N+]([O-])c1cc2c(c([N+](=O)[O-])c1)NCc1ccccc1O2
inactive: CAKI-1 14.9 µM | HCC 2998 > 100 µM | HCT-116 > 100 µM | LOX IMVI > 100 µM | MDA-MB-435 > 100 µM | MDA-N > 100 µM | MOLT-4 59.2 µM | NCI-H23 > 100 µM | NCI-H460 > 100 µM | OVCAR-4 70.5 µM | SF-295 > 100 µM | SF-539 69.3 µM | SK-MEL-28 > 100 µM | SN12C > 100 µM | SW-620 > 100 µM | T47D > 100 µM | U-251 41.2 µM

COc1ccc2c(CC(=O)O)cc(=O)oc2c1
inactive: CAKI-1 > 100 µM | HCC 2998 > 100 µM | HCT-116 > 100 µM | LOX IMVI > 100 µM | M14 > 100 µM | MDA-MB-435 > 100 µM | MDA-N > 100 µM | MOLT-4 > 100 µM | NCI-H23 > 100 µM | NCI-H460 > 100 µM | OVCAR-4 > 100 µM | SF-295 > 100 µM | SF-539 > 100 µM | SK-MEL-28 > 100 µM | SN12C > 100 µM | SW-620 > 100 µM | T47D > 100 µM | U-251 > 100 µM
